Data from US10934577B2, “Assays for resistance to echinocandin-class drugs” (priority 2005, dated 2021).

Experiments:
[1] = tested on: C. albicans strains CAI4 and M70; experiment: Isolation of spontaneous caspofungin-resistant mutants by direct selection on solid media containing caspofungin; format: cell-based, Candida albicans; settings: both strains CAI4 and M70; YPD plates with 4 μg/ml caspofungin (forty times the MIC)
Protocol: (§1) Spontaneous mutants of C. albicans strains CAI4 and M70 resistant to caspofungin were isolated by direct selection on solid growth media containing 4 μg/ml (forty times the MIC) caspofungin. The frequency of formation of spontaneous caspofungin-resistant derivatives for both strains was <10^−8 mutants per viable cell. For both strains, the formation of rare shrunken slow-growing colonies on the plates with caspofungin was observed. […] After prolonged incubation for more than 10 days, a small fraction of small shrunken colonies gave rise to smooth fast-growing derivatives which were able to propagate on caspofungin-containing media after reinoculation. Only one such derivative per individual plate/culture was saved and used for further analysis. In total, 35 and 50 isolates with reduced susceptibility to caspofungin were isolated for strains CAI4 and M70, respectively. […] Details of the isolation procedure are set forth in Example 2.
Spontaneous caspofungin-resistant mutants of C. albicans strains CAI4 and M70 were isolated by plating 100 ul (˜10^8 cells) of an 18 h liquid YPD culture on YPD plates containing 4 μg/ml caspofungin. Serial dilutions of the overnight cultures were plated on the YPD plates without antibiotic selection to precisely determine starting colony counts. Selection plates were incubated for 10-14 days at 30° C. […]

[2] = tested on: C. albicans strains CAI4 and M70, laboratory-derived isolates with reduced susceptibility; experiment: In vitro caspofungin susceptibility testing, liquid microbroth dilution assay in RPMI-1640 (NCCLS M27-A2); format: cell-based; settings: Candida albicans; all laboratory-derived isolates (35 from CAI4, 50 from M70) selected on 4 μg/ml caspofungin
Protocol: as §1
C. albicans strain CAI4 was purchased from ATCC (ATCC, Manassas, Va.). C. albicans strain M70 was from the Merck culture collection (MRL, Rahway, N.J.). Strains were grown on yeast extract-peptone-dextrose (YPD) medium (1% yeast extract, 2% Bacto Peptone, 2% dextrose). For growth of strain CAI4, YPD medium was supplemented by uridine (Sigma-Aldrich, St. Louis, Mo.) at 25 mg/ml. Caspofungin (Merck, Rahway, N.J.) was added directly to YPD at 4 μg/ml. […]

SMILES: CC[C@H](C)C[C@H](C)CCCCCCCCC(=O)N[C@H]1C[C@@H](O)[C@@H](NCCN)NC(=O)[C@@H]2[C@@H](O)CCN2C(=O)[C@H]([C@H](O)CCN)NC(=O)[C@H]([C@H](O)[C@@H](O)c2ccc(O)cc2)NC(=O)[C@@H]2C[C@@H](O)CN2C(=O)[C@H]([C@@H](C)O)NC1=O [caspofungin]
- frequency of formation of spontaneous caspofungin-resistant derivatives [1]: < 10^−8 mutants per viable cell
- MIC [2]: > 16 µg/mL
